Data set [1] has as its system β- and γ-globin genes in HUDEP-2 cells. In words: RT-qPCR of β- and γ-globin in HUDEP-2 cells. Format: cell-based, human. In outline:
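Total RNA reverse-transcribed to cDNA, then target transcripts quantified by SYBR Green real-time qPCR. Expression normalized to GAPDH as reference gene.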

Data set [2] concerns CD34+ cells. Nature of the data set: Cell viability of CD34+ cells by cell counting. Format: cell-based, human. Conditions: for cell viability: CD34+ cells, 10 days. Here is the method:
HUDEP-2 cells and HiDEP-1 cells were grown in Stemline II Hematopoietic Stem Cell Expansion Medium (Sigma) supplemented with 50 ng/mL recombinant stem cell factor (SCF; R&D systems), 3 IU/mL recombinant erythropoietin (EPO; Kyowa Kirin), 1 μM dexamethasone (Dex; Sigma), and 1 μg/mL doxycycline (Sigma). A total of 1 × 10^5 human CD34^+ progenitor cells derived from bone marrow or peripheral blood (Lonza) were cultured on 35-mm dishes (BD Falcon) in StemSpan SFEMII medium with 50 ng/mL SCF, 5 IU/mL EPO, and 10 ng /mL interleukin 3 (IL-3; R&D systems). The medium was changed on day 4 to SCF, EPO, and 1 μM Dex, and the cells were transferred to 60-mm dishes (BD Falcon). Seven days after the onset of differentiation, cells were counted and 1 × 10^6 cells were re-plated on 100-mm dishes (BD Falcon) with SCF, EPO, and Dex. The rat myoblast cell line H9c2, HEK293T, and PLAT-E cells were maintained in Dulbecco’s modified Eagle’s medium (Thermo Fisher Scientific) supplemented with 10% heat-inactivated fetal bovine serum (FBS) and penicillin/streptomycin. All cells were cultured at 37 °C under 5% CO2.

Data set [3] relates to ZBTB7A occupancy at the β-globin locus. Nature of the data set: ChIP-qPCR with antibody against ZBTB7A in HUDEP-2 cells. On the set-up: ChIP-qPCR, antibody against ZBTB7A: scale not given here. Conditions: for occupancy of ZBTB7A: HUDEP-2, 4 days. Format: cell-based, human. Here is the method: A total of 0.5–1 × 10^6 cells were cross-linked with 1% formaldehyde for 10 min at room temperature and the reaction was quenched with 250 mM glycine. Cross-linked cells were then lysed with buffer 1 (15 mM Tris-HCl (pH 7.5), 60 mM KCl, 15 mM NaCl, 5 mM MgCl2, 0.1 mM EGTA, 300 mM sucrose, […], 1 mM phenylmethanesulfonyl fluoride (PMSF), 0.5% NP40) and incubated on ice for 10 min. After centrifugation, the pellet was re-suspended in buffer 2 (15 mM Tris-HCl (pH 7.5), 60 mM KCl, 15 mM NaCl, 5 mM MgCl2, 0.1 mM EGTA, 1.2 M sucrose, […], 1 mM PMSF). After centrifugation, the pellet was then re-suspended in MNase buffer (50 mM Tris-HCl (pH 7.5), 1 mM CaCl2, 4 mM MgCl2, 320 mM sucrose, 1 mM PMSF) and digested with 100 U of micrococcal nuclease (Takara) at 37 °C for 15 min. After the reaction was quenched with 20 mM EDTA, the supernatants were incubated with antibodies (anti-H3K9me2 (1:100), Abcam, ab1220; anti-H3K9ac (1:100), Active Motif, 39917; Goat anti-IgG (H + L) (1:100), Jackson Immunoresearch; anti-BCL11A (1:100), Novus Biologicals, NB600-261; anti-ZBTB7A (1:100), Thermo Fisher Scientific, eBioscience (13E9); anti-CHD3 (1:100), Novus Biologicals, NB-100-60412; anti-CHD4 (1:100), abcam, ab240640) and Protein A/G PLUS-Agarose (Santa Cruz Biotechnology) overnight at 4 °C. Beads were washed sequentially once with the following buffers: wash buffer A (50 mM Tris-HCl (pH 7.5), 75 mM NaCl, 10 mM EDTA, 0.01% NP40), wash buffer B (50 mM Tris-HCl (pH 7.5), 100 mM NaCl, 10 mM EDTA, 0.01% NP40), wash buffer C (50 mM Tris-HCl (pH 7.5), 175 mM NaCl, 10 mM EDTA, 0.01% NP40). After treatment with proteinase K in buffer 4 (20 mM Tris-HCl (pH 8.0), 10 mM EDTA, 400 mM NaCl, 0.5% SDS) at 56 °C overnight, DNA was purified using the FastGene Gel/PCR Extraction Kit (Nippon Genetics). The samples were analyzed by qPCR. Primers are listed in Supplementary Table 10. ChIP-seq experiments were performed by GENEWIZ. Tracks were visualized using the integrative genome viewer. ChIP-seq analysis were analyzed Cutadapt (V1.9.1) for QC, FastQC (V0.10.1) for QC assessment, Bowtie (V2.1.0) for mapping, strand cross-correlation (SCC) for ChIP quality assessment, MACS2 for peak calling, and R package ChIPpeakAnno for Peak annotated.

A short description of data set [4]: Cell viability assay (WST-8), H9c2. Conditions: rat, H9c2 myoblast cells, control (0 μM) = 100. Format: cell-based, rat. How it is done:
(§1) A WST-8 (2-(2-methoxy-4-nitrophenyl)-3-(4-nitrophenyl)-5-(2,4-disulfophenyl)-2H-tetrazolium) assay using a Cell Counting Kit-8 (DOJINDO) was performed to measure cell viability using an EnSpire microplate reader (PerkinElmer).
On the technique in general: Tetrazolium dyes change colour on reduction, which living cells bring about.

Data set [5] relates to rat myoblast cell line H9c2. In words: Cell viability assay (WST-8), H9c2. Particulars: for cell viability in H9c2 cells: control (0 μM) = 100. Format: cell-based. How it is done:
as §1

Setting [6] is: Parental cells, relative to Parental DMSO = 1, replicate values.
The mark [7] stands for this setting: single agents or combination, relative to DMSO = 1, replicate values.

Several values for one entry are separate records, joined by “and”; a condition that tells them apart may be missing. Equal values may be shown once.

Consider `NC(=O)NO` [Hydroxyurea, hydroxyurea], for which, in data set [1] (setting [6]), the “β-globin in hydroxyurea-treated HUDEP-2 cells” value is 1.499 and 1.443 and 1.4392. In addition, the “γ-globin in hydroxyurea-treated HUDEP-2 cells” value in data set [1] (setting [6]) was 3.312 and 3.051 and 3.256. In addition, the “Cell viability in CD34+ cells” value in data set [2] (10 μM) is 3.83 10*7 cells and 4.25 10*7 cells and 4.44 10*7 cells; in data set [2] (50 μM), 1.8 10*7 cells and 1.47 10*7 cells and 1.48 10*7 cells. The cell viability entry in data set [2] is recorded as “severe cytotoxicity”. The “ChIP-qPCR, antibody against ZBTB7A” value in data set [3] (BGLT3 locus, HUDEP-2 cells treated with hydroxyurea, replicates 1a-3b) was 0.2555 and 0.2878 and 0.489 and 0.1677 and 0.3852 and 0.1554; in data set [3] (HS1, HUDEP-2 cells treated with hydroxyurea, replicates 1a-3b), 0.1321 and 0.1347 and 0.8135 and 0.9678 and 0.3385 and 0.3161; in data set [3] (HS2, HUDEP-2 cells treated with hydroxyurea, replicates 1a-3b), 0.5755 and 1.852 and 0.7582 and 2.507 and 0.9285 and 0.344; in data set [3] (HS3, HUDEP-2 cells treated with hydroxyurea, replicates 1a-3b), 3.3 and 2.712 and 3.199 and 3.147 and 3.201 and 2.452; in data set [3] (HS4, HUDEP-2 cells treated with hydroxyurea, replicates 1a-3b), 0.5937 and 0.6906 and 0.5556 and 0.0004431 and 0.6456 and 0.709; in data set [3] (β-globin promoter, HUDEP-2 cells treated with hydroxyurea, replicates 1a-3b), 0.3506 and 0.4318 and 0.349 and 0.2415 and 0.313 and 0.6542. Besides, the “ChIP-qPCR, antibody against ZBTB7A” value in data set [3] (γ-globin promoter, HUDEP-2 cells treated with hydroxyurea, replicates 1a-3b) was 0.3068 and 0.4102 and 0.3595 and 0.2786 and 0.238 and 0.2672; in data set [3] (δ-globin promoter, HUDEP-2 cells treated with hydroxyurea, replicates 1a-3b), 0.2368 and 0.1088 and 0.2161 and 0.2308 and 0.337 and 0.2535. Moreover, the “occupancy of ZBTB7A” value in data set [3] was “unchanged”.
For `Cc1c(C(=O)NC(CCC2CC2)C(=O)Nc2ccc(C#N)cc2)[nH]c2c1C(=O)CC(C)(C)C2` (stereo not drawn) [RK-701], in data set [1] (HUDEP-2), the “γ-globin mRNA level” value is “upregulated”. The “β-globin expression in HUDEP-2 cells treated with RK-701 and decitabine” value in data set [1] (setting [7]) was 1.116 and 1.192 and 1.151. The “γ-globin expression in HUDEP-2 cells treated with RK-701 and decitabine” value in data set [1] (setting [7]) was 2.225 and 1.925 and 1.787. Besides, the “Cell viability in CD34+ cells” value in data set [2] (0.01 μM) is 4.59 10*7 cells and 4.56 10*7 cells and 4.57 10*7 cells; in data set [2] (0.03 μM) it was 4.39 10*7 cells and 4.41 10*7 cells and 4.97 10*7 cells; in data set [2] (0.1 μM), 4.54 10*7 cells and 4.45 10*7 cells and 4.75 10*7 cells; in data set [2] (0.3 μM), 4.11 10*7 cells and 4.64 10*7 cells and 4.5 10*7 cells; in data set [2] (1 μM), 4.01 10*7 cells and 4.28 10*7 cells and 4.43 10*7 cells; in data set [2] (3 μM), 4.31 10*7 cells and 4.53 10*7 cells and 4.47 10*7 cells. The cell viability result in data set [2] is recorded as “without affecting cell viability”. Also, the “ChIP-qPCR, antibody against ZBTB7A” value in data set [3] (BGLT3 locus, HUDEP-2 cells treated with RK-701, replicates) is 0.4785 and 0.7839 and 0.6066 and 0.47 and 0.614 and 0.4023; in data set [3] (HS1, HUDEP-2 cells treated with RK-701, replicates), 0.3678 and 0.05637 and 0.7128 and 0.4479 and 0.1475 and 0.1331; in data set [3] (HS2, HUDEP-2 cells treated with RK-701, replicates), 1.5097 and 1.657 and 5.746 and 3.531 and 2.263 and 8.084 and 5.171; in data set [3] (HS3, HUDEP-2 cells treated with RK-701, replicates) it was 0.5878 and 1.255 and 2.352 and 2.616 and 1.402 and 1.245 and 2.743; in data set [3] (HS4, HUDEP-2 cells treated with RK-701, replicates) it was 0.4061 and 0.5382 and 0.8901 and 0.4009 and 0.2486; in data set [3] (β-globin promoter, HUDEP-2 cells treated with RK-701, replicates), 0.04529 and 0.1645 and 0.1359 and 0.07664 and 0.1559 and 0.07017 and 0.04448 and 0.1674 and 0.1136. Moreover, the “ChIP-qPCR, antibody against ZBTB7A” value in data set [3] (γ-globin promoter, HUDEP-2 cells treated with RK-701, replicates) was 0.04733 and 0.01872 and 0.01192 and 0.1001 and 0.03782 and 0.06607 and 0.08612; in data set [3] (δ-globin promoter, HUDEP-2 cells treated with RK-701, replicates), 0.02578 and 0.1044 and 0.02059 and 0.06153 and 0.0851 and 0.07628. Further, the “occupancy of ZBTB7A” value in data set [3] is recorded as “significantly reduced”. In data set [4], the viability at 0.039 μM was 101%. Moreover, the viability at 0.156 μM in data set [4] was found to be 95.6%. Besides, the “cell viability in H9c2 cells” value in data set [5] (0.039 μM) is 91.465 and 104.927; in data set [5] (0.156 μM) it was 91.465 and 106.022; in data set [5] (0.625 μM), 97.754 and 88.280 and 116.423; in data set [5] (2.5 μM), 95.509 and 92.994 and 114.051; in data set [5] (10.0 μM), 145.310 and 89.427 and 118.431. Further, the “cytotoxic effect on viability” value in data set [5] (H9c2, 5 days) is “essentially no cytotoxic effect”.
With `Cc1c(C(=O)N[C@H](CCC2CC2)C(=O)Nc2ccc(C#N)cc2)[nH]c2c1C(=O)CC(C)(C)C2` [RK-0133114], in data set [4], the viability at 0.039 μM was found to be 89.5%. Moreover, in data set [4], the viability at 0.156 μM worked out at 100%. For the same compound, the viability at 0.625 μM in data set [4] (0.625 μM) worked out at 116%. In addition, the viability at 2.5 μM in data set [4] (2.5 μM) was 85.5%. Moreover, the viability at 10 μM in data set [4] (10.0 μM) came out at 106%. Moreover, the “cell viability in H9c2 cells” value is 95.980 and 104.160 in data set [5] (0.039 μM); 93.342 and 91.200 in data set [5] (0.156 μM); 99.497 and 102.560 in data set [5] (0.625 μM); 93.970 and 103.040 in data set [5] (2.5 μM); 89.573 and 98.080 in data set [5] (10.0 μM).

One may read the viability as a read-out of living cells in per cent, often relative to untreated cells.

Values taken from article PMC9837035 (Nature Communications, 2023).
